Test results: patent US8268854B2, “Aza-beta-carbolines and methods of using same” (The UWM Research Foundation, Inc., priority 2008, dated 2012)
Where a name gives a salt, the structure may show the parent alone.

Experiments:
[1] = target: T1, Dopamine receptor D2 (Homo sapiens, UniProt P14416); experiment: PDSP primary radioligand binding assay; conditions: compound 10 μM; for inhibition at 10 µM: n=4, read-out: mean percentage inhibition, Dopamine receptor D2
T1 construct: expressed in transfected cells
T1 sequence (P14416 whole entry): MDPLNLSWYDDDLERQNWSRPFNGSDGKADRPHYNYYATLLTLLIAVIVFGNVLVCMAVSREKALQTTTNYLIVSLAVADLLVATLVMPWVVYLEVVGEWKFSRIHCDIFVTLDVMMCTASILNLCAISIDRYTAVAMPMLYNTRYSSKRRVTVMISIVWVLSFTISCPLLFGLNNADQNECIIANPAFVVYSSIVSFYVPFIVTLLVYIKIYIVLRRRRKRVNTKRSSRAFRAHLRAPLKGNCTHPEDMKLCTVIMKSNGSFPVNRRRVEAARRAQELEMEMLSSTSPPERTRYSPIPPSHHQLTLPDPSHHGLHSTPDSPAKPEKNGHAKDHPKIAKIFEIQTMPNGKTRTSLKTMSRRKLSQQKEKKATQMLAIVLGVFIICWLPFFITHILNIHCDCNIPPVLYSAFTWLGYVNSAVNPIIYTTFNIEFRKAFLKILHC
Experimental: Primary and secondary radioligand binding assays are performed. In general, the primary assay is run at very high ligand (compound) concentration as a broad screen to determine whether a compound binds to a particular receptor. If greater than 50% inhibition at 10 μM (high concentration of compound) at a particular receptor is determined, a secondary assay is performed on that receptor. Data from the secondary assay is the binding affinity (Ki value).
A solution of the compound to be tested is prepared as a 1 mg/ml stock in Standard Binding Buffer or dimethyl sulfoxide (DMSO) according to its solubility. A similar stock of a reference compound (positive control) is also prepared.
Radioligand (radioligands are presented in Table 39) is diluted to five times the assay concentration (assay concentrations are presented in Table 39) in Standard Binding Buffer. Typically, the assay concentration of radioligand is a value between one half the KD and the KD of a particular radioligand at its target. Aliquots (50 μL) of radioligand are dispensed into the wells of a 96-well plate (see FIG. 11) containing 100 μL of Standard Binding Buffer (Table 40). Then, duplicate 50 μL aliquots of the test and reference compound dilutions are added (see FIG. 11). According to FIG. 11, increasing concentrations (from left to right) of reference or test compound (diluted in buffer) are added (50 μL aliquots, in duplicate) from 5× stock solutions to wells containing 50 μL of 5× radioligand (fixed concentration, prepared in buffer) and 100 μL of buffer. Finally, 50 μL of receptor-containing membrane homogenate (5× suspension in buffer) are added to achieve a final assay volume of 250 μL. Final concentrations of reference or test compound are listed above the columns in FIG. 11.
Finally, crude membrane fractions of cells expressing recombinant target (prepared from 10 cm plates by harvesting phosphate buffered saline (PBS)-rinsed monolayers, resuspending and lysing in chilled, hypotonic 50 mM Tris-HCl, pH 7.4, centrifuging at 20,000×g, decanting the supernatant and storing at −80° C.; typically, one 10 cm plate provides sufficient material for 24 wells) are resuspended in 3 mL of chilled Standard Binding Buffer and homogenized by several passages through a 26 gauge needle, and then 50 μL are dispensed into each well.
The 250 μL reactions are incubated at room temperature and shielded from light (to prevent photolysis of light-sensitive ligands) for 1.5 hours, then harvested by rapid filtration onto Whatman GF/B glass fiber filters pre-soaked with 0.3% polyethyleneimine using a 96-well Brandel harvester. Four rapid 500 μL washes are performed with chilled Standard Binding Buffer to reduce non-specific binding. Filters are placed in 6 mL scintillation tubes and allowed to dry overnight. The next day, 4 mL of EcoScint scintillation cocktail (National Diagnostics) are added to each tube. The tubes are capped, labeled, and counted by liquid scintillation counting. For higher throughput assays, bound radioactivity is harvested onto 0.3% polyethyleneimine-treated, 96-well filter mats using a 96-well Filtermate harvester. The filter mats are dried, then scintillant is melted onto the filters, and the radioactivity retained on the filters is counted in a Microbeta scintillation counter.
Raw data (dpm) representing total radioligand binding (i.e., specific+non-specific binding) are plotted as a function of the logarithm of the molar concentration of the competitor (i.e., test or reference compound). […]

[2] = tested on: Male P rats; experiment: Animal model of excessive (binge) alcohol consumption, operant alcohol responding; format: in vivo, rat; conditions: N=5 per compound, oral gavage, lever press for alcohol, FIG. 13, FIG. 14
Experimental: Male P rats are used as subjects. All animals are individually housed in shoebox cages in a temperature- and humidity-controlled room on a 12 h:12 h light/dark cycle (lights on at 8:00 AM, off at 8:00 PM) with food and water available ad libitum. All behavioral training and testing take place between 8:00 AM and 10:00 AM. All procedures are conducted in accordance with the NIH Guide for the Care and Use of Laboratory Animals.
10% (v/v) EtOH and 3% (w/v) sucrose solutions are prepared using previously published procedures (Harvey et al. J. Neurosci. 2002, 22, 3765-3775; June et al. Neuropsychopharmacology 2003, 28, 2124-2137) with deionized water. The solutions are prepared daily. Compounds are administered by oral gavage (20-60 mg/kg) in all studies (e.g., alcohol responding, sucrose responding) as indicated in FIG. 12. The compounds are mixed in deionized water and administered by gavage in an injection volume of 1 mL/kg 25 min prior to the behavioral task. […]
Approximately 100 μL of whole blood is collected from a rat's tail tip into a heparin-coated microsample tube. […] The results are calculated in units of mg/dL and printed within 20 s of each trial as previously reported (Harvey et al., J. Neurosci. 2002, 22, 3765-3775; June et al. Neuropsychopharmacology 2003, 28, 2124-2137). […]

| Structure (SMILES) | mean percentage inhibition, Dopamine receptor D2 ([1]; n=4, hydrochloride, 10 µM) [%] | inhibition at 10 µM [1] [%] | effect on excessive alcohol consumption [2] |
| --- | --- | --- | --- |
| CCCOc1cc2c(cn1)[nH]c1cnccc12 [Compound 4, 3-Propoxy pyridino[4′,3′-4,5]pyrrolo[2,3-c]pyridine hydrochloride] | 50 | > 50 | Reduce Excessive Alcohol Consumption |
| CCCOc1cc2c(cn1)[nH]c1ccncc12 [Compound 2, 8-Propoxypyridino[4′,3′-5,4]pyrrolo[3,2-c]pyridine hydrochloride] | – | > 50 | Reduce Excessive Alcohol Consumption |
